Assay results from PMC7942396, “Drug Repurposing Screen for Compounds Inhibiting the Cytopathic Effect of SARS-CoV-2” (Frontiers in Pharmacology, 2021).
Counter-ions that a name gives are not always drawn. Like-named read-outs stand apart in the source and are kept apart here.

Experiments:
in vitro = details: African green monkey
[1] = test system: SARS-CoV-2 (USA_WA1/2020); experiment: microbe, parasite or virus in culture; assay type: cell-based
[2] = human, cited from earlier work; for Cmax: Single dose 600 mg PO, ref Winstanley et al. (1987)
Vero E6 cells = Vero E6 cells without virus, 72 h
[3] = Severe acute respiratory syndrome coronavirus 2, Vero C1008, read-out: CPE % Efficacy
[4] = Severe acute respiratory syndrome coronavirus 2, Vero C1008; […]; DMSO 0%, no-virus control 100%; hit confirmation; read-out: CPE % efficacy
[5] = Severe acute respiratory syndrome coronavirus 2, Vero C1008, SARS-CoV-2 CPE assay, Vero E6 cells; confirmed anti-SARS-CoV-2 compounds; read-out: CPE EC50
[6] = Severe acute respiratory syndrome coronavirus 2, Vero C1008; SARS-CoV-2 CPE assay, Vero E6 cells; efficacy; read-out: CPE % Efficacy
[7] = Severe acute respiratory syndrome coronavirus 2, Vero C1008, read-out: CPE EC50 (uM)
[8] = Severe acute respiratory syndrome coronavirus 2, Vero C1008; SARS-CoV-2 CPE assay, Vero E6 cells; read-out: CPE % Efficacy
[9] = Severe acute respiratory syndrome coronavirus 2, Vero C1008; SARS-CoV-2 CPE assay, Vero E6 cells; read-out: CPE EC50
[10] = Severe acute respiratory syndrome coronavirus 2, Vero C1008, 72 h; read-out: CPE EC50

Structure (SMILES)	cytotoxicity (in vitro) [%]	EC50 [1, 5] [µM]	Emax [1, 6] [%]	cytotoxicity at 72 h (in vitro) [%]	CC50 (in vitro) [µM]	other results
CNCC[C@H](Oc1cccc2ccccc12)c1cccs1 [Duloxetine hydrochloride, reference compound]	< 30					EC50 ([1]; Severe acute respiratory syndrome coronavirus 2, Vero C1008, 72 h, read-out: CPE EC50): 10 µM; Emax [1, 3]: 90%; Elimination T1/2 ([2]; 60 mg BID PO, ref Knadler et al. (2011)): 6.96 to 14.9 h
CNCCCC12CCC(c3ccccc31)c1ccccc12 [Maprotiline hydrochloride, reference compound]	< 30					Emax [1, 3]: 104%; Elimination T1/2 ([2]; Single dose 75 mg PO, ref Maguire et al. (1980)): 45 h
CN(C)C(=O)C(CCN1CCC(O)(c2ccc(Cl)cc2)CC1)(c1ccccc1)c1ccccc1 [Loperamide hydrochloride, reference compound]	< 30					Emax [1, 4]: 98.6%; Elimination T1/2 ([2]; Single dose 2 mg PO, ref Janssen Pharmaceutica Inc. (1998)): 9.1 to 14.4 h
CN1CCC[C@@H]1CCO[C@](C)(c1ccccc1)c1ccc(Cl)cc1 [Clemastine fumarate, reference compound]	< 30					Elimination T1/2 ([2]; Single dose 1.34 mg PO, ref Schran et al. (1996)): 21.3 ± 11.6 h
CCN(CC)Cc1cc(Nc2ccnc3cc(Cl)ccc23)ccc1O.Cl.Cl.O.O [Amodiaquine dihydrochloride, reference compound]						% Cytotox (Vero E6 cells): <30%; CPE % Efficacy ([1]; […]; DMSO 0%, no-virus control 100%; hit confirmation): 87.2%; EC50 ([1]; read-out: CPE EC50): 4 µM; Cmax [2]: 32 ± 3 ng/mL; Cmax ([2]; read-out: Cmax): 69 nM
CN(C)CCCN1c2ccccc2Sc2ccccc21 [Promazine hydrochloride]	9.4	10	55.8			
CC[C@H](CC#N)OC(=O)N[C@@H](C)c1cccc(NC(=O)Nc2ccc(-c3cnco3)c(OC)c2)c1 [AVN944]		11.2	95.3	50.3		CC50 at 72 h (in vitro): 3.98 µM
CCNCCc1ccc(CN(CC)c2cc(OC)ccc2[C@@H]2CCc3cc(O)ccc3C2)cc1 [Elacestrant]		3.98	104	104		CC50 at 72 h (in vitro): 12.6 µM
S=C(NCc1ccc2c(c1)OCO2)N1CCN(c2ncnc3c2oc2ccccc23)CC1 [Amuvatinib]	30.1	3.55	69.8		3.16	
CN1CCCCC1CCN1c2ccccc2Sc2ccc([S+](C)[O-])cc21 (stereo not drawn) [Mesoridazine]	16.1				15.8	Emax [1, 3]: 43.5%; EC50 [1, 7]: 12.6 µM
O=C1Nc2ccc(Cl)cc2[C@@](C#CC2CC2)(C(F)(F)F)O1 [Efavirenz]	24.3					Emax [1, 8]: 90.6%; EC50 [1, 9]: 14.1 µM
CN1CCC(CN2c3ccccc3Sc3ccccc32)C1 (stereo not drawn) [Methdilazine hydrochloride, reference compound]	< 30					EC50 [1, 10]: 10 µM; Emax [1, 4]: 86.4%
CN(C)CCCN1c2ccccc2CCc2ccccc21 [Imipramine]	0					Emax [1, 8]: 57.6%; EC50 [1, 9]: 12.6 µM
CNCCC(Oc1ccc(C(F)(F)F)cc1)c1ccccc1 (racemic) [(+/-) -Fluoxetine, reference compound]	< 30					Emax [1, 4]: 116%; Elimination T1/2 ([2]; Single dose 40 mg PO, ref Eli Lilly and Company (1987)): 24 to 72 h
CC(=O)OC[C@]12C[C@H](OC(=O)CC(C)C)C(C)=C[C@H]1O[C@@H]1[C@H](O)[C@@H](O)[C@@]2(C)[C@]12CO2 [HT-2 Toxin]	98				0.13	CPE % Efficacy [1]: 32.4%; EC50 ([1]; read-out: CPE EC50): 0.0226 µM
CCOC(=O)c1c(CSc2ccccc2)n(C)c2cc(Br)c(O)c(CN(C)C)c12 [Arbidol]	17.3	11.2	105		12.6	
C=C1C(=O)[C@]23[C@H](O)[C@H]1CC[C@H]2[C@@]12CO[C@]3(O)[C@@H](O)[C@@H]1C(C)(C)CC[C@@H]2O [Oridonin]	27.4					Emax [1, 8]: 130%; EC50 [1, 9]: 11.2 µM
Cc1nc(Nc2ccc(F)cc2)nc(N2CCc3ccccc3C2C)c1C (stereo not drawn) [Revaprazan HCl]		5.01	60.4	49.9		
O=C(Nc1ccc(-c2ccnc(Nc3ccc(N4CCOCC4)cc3)n2)cc1)C1CCCN1 (stereo not drawn) [XL019]	61.8				8.91	Emax [1, 8]: 53.9%; EC50 [1, 9]: 14.1 µM
COC(=O)[C@]1(C)CC[C@]2(C)CC[C@]3(C)C4=CC=C5C(=CC(=O)C(O)=C5C)[C@]4(C)CC[C@@]3(C)[C@@H]2C1 [Pristimerin, reference compound]					1.1	EC50 [1, 10]: 0.11 µM; Emax [1, 4]: 87.4%

Structure (SMILES)	cytotoxicity (in vitro) [%]	EC50 [1, 5] [µM]	Emax [1, 6] [%]	cytotoxicity at 72 h (in vitro) [%]	CC50 (in vitro) [µM]	other results
COC(=O)[C@@]12OC[C@]34[C@H]([C@@H](O)[C@@H]1O)[C@@]1(C)CC(=O)C(O)=C(C)[C@@H]1C[C@H]3OC(=O)[C@H](OC(=O)/C=C(\C)C(C)C)[C@@H]24 [Bruceantin]	83.3	0.0319	42.5		0.14	
CN(C)CCCN1c2ccccc2Sc2ccc(Cl)cc21 [Chlorpromazine]	45.6				11.2	Emax [1, 8]: 102%; EC50 [1, 9]: 12.6 µM
CN(C)CCC=C1c2ccccc2C=Cc2ccccc21 [Cyclobenzaprine hydrochloride]	23.9					Emax [1, 3]: 77.2%; EC50 [1, 7]: 12.6 µM
CCn1c(=O)c(-c2cc(NC(=O)Nc3ccccc3)c(F)cc2Br)cc2cnc(NC)cc21 [DCC-2618]				48.5		CC50 at 72 h (in vitro): 11.2 µM; Emax [1, 8]: 65.4%; EC50 [1, 9]: 12.6 µM
CCCN(CCC)C(=O)C(CCC(=O)OCCCN1CCN(CCOC(=O)Cc2c(C)n(C(=O)c3ccc(Cl)cc3)c3ccc(OC)cc23)CC1)NC(=O)c1ccccc1 (stereo not drawn) [Proglumetacin, reference compound]				< 30		EC50 [1, 10]: 10 µM; Emax [1, 4]: 87.6%
NC(=O)c1cccc2cn(-c3ccc([C@@H]4CCCNC4)cc3)nc12 [Niraparib]	24.3				15.8	Emax [1, 3]: 134%; EC50 ([1]; Severe acute respiratory syndrome coronavirus 2, Vero C1008, read-out: CPE EC50): 11.2 µM
Oc1ccc(-c2nc(-c3ccncc3)c(-c3ccc(F)cc3)[nH]2)cc1 [SB-202190]		3.98	95.8	62.4		
COc1c(-c2ccc3cc(NS(C)(=O)=O)ccc3c2)cc(-n2ccc(=O)[nH]c2=O)cc1C(C)(C)C [ABT-333]				42.5		Emax [1, 8]: 48.7%; EC50 [1, 9]: 12.6 µM
Cc1ccc(NC(=O)c2ccc(CN3CCN(C)CC3)cc2)cc1Nc1nccc(-c2cccnc2)n1 [Imatinib, reference compound]	< 30					Emax [1, 4]: 119%
CCCNCC(O)COc1ccccc1C(=O)CCc1ccccc1 (stereo not drawn) [Propafenone hydrochloride]	0					Emax [1, 8]: 61.6%; EC50 [1, 9]: 14.1 µM
Cc1cc(O)c2c(c1)O[C@@]1(C)CC[C@H]3C(C)(C)CCC[C@]34CO[C@@H]2[C@H]41 [Siccanin]				0		Emax [1, 8]: 104%; EC50 [1, 9]: 12.6 µM
CCN(CC)CCN(Cc1ccc(-c2ccc(C(F)(F)F)cc2)cc1)C(=O)Cn1c(SCc2ccc(F)cc2)nc(=O)c2c1CCC2 [Darapladib]	102	2.82	75.1		11.2	
Cn1c(Nc2ccc(C(F)(F)F)cc2)nc2cc(Oc3ccnc(-c4ncc(C(F)(F)F)[nH]4)c3)ccc21 [CHIR-265]	92.7	0.79	31.7		0.32	
CCN(CC)CCOc1ccc2c(c1)C(=O)c1cc(OCCN(CC)CC)ccc1-2 [TILORONE]		3.98	74.3	97.2		CC50 at 72 h (in vitro): 11.2 µM
CN1CCN(CCCN2c3ccccc3Sc3ccc(S(=O)(=O)N(C)C)cc32)CC1 [Thioproperazine dimethanesulfonate]		8.91	54	19.6		CC50 at 72 h (in vitro): 15.8 µM
Cc1cn(CCN2CCN(c3ccccc3-c3cc(C#N)cc(C(=O)NCCCN4CCCC4)c3)CC2)c2ccccc12 [LLY-507]		3.16	59.6	108		CC50 at 72 h (in vitro): 12.6 µM
N#Cc1ccc2c(c1)N(CCCN1CCC(O)CC1)c1ccccc1S2 [PERICIAZINE]	23.1					Emax [1, 8]: 107%; EC50 [1, 9]: 12.6 µM
COC(=O)[C@H]1[C@H]2C[C@@H]3c4[nH]c5cc(OC)ccc5c4CCN3C[C@H]2C[C@@H](OC(=O)c2cc(OC)c(OC)c(OC)c2)[C@@H]1OC [Reserpine]	13.4	11.2	91.8		19.9	
COC(=O)[C@H]1[C@H]2C[C@@H]3c4[nH]c5ccccc5c4CCN3C[C@H]2C[C@@H](OC(=O)c2cc(OC)c(OC)c(OC)c2)[C@@H]1OC [Deserpidine, reference compound]				< 30		EC50 [1, 10]: 10 µM; Emax [1, 4]: 84.7%; Elimination T1/2 ([2]; Single dose 0.25 mg PO, ref Zhang et al. (2009)): 42.9 ± 17.8 h
CN(C)CCCN1c2ccccc2CCc2ccc(Cl)cc21 [Clomipramine hydrochloride]	33.2		91.6			
